From patent US9045434B1, “Compositions and methods of treatment for myocilin glaucoma by selectively inhibiting GRP94” (University of South Florida, priority 2012, dated 2015)

How the values were obtained:
BiP expression = experiment: Induction of BiP expression, immunoblot
Source text: Grp94, BiP and PDIA6 were detected with the monoclonal anti-KDEL antibody, AKT by rabbit anti-serum. 14-3-3 served as loading control. Numbers below BiP, Grp94, and AKT bands are the relative expression levels, determined by densitometry.
The inventors therefore assessed the ability of 2 to cause BiP up-regulation, in comparison to pan-Hsp90 inhibitors.

HeLa cells = experiment: HeLa cell survival, XTT assay (GRP94-sufficient or -deficient cells); format: cell-based; settings: Homo sapiens, 48 hrs, regardless of the presence of GRP94, read-out: IC50 for HeLa cell viability
Experimental: (§1) GRP94 and BiP were detected by the anti-KDEL antibody. *, an unknown KDEL-containing band. […] Cell survival was measured by XTT assay (n=4).
Similar results were obtained with other cell lines (e.g. C2C12 in FIG. 6).

I477N mutant myocilin = I477N mutant myocilin levels in HEK iI477N cells, Western blot; format: cell-based, human; settings: for effect on I477N mutant myocilin levels: 24 hours, indicated concentrations
Experimental: (§2) FIGS. 16A-E are a series of images depicting inhibition of the Hsp90 chaperone complex reduces the levels of the disease-causing I477N myocilin. Western blot of lysates from HEK iI477N cells treated with the indicated concentrations of the pan Hsp90/Grp94 inhibitors 17-AAG (A) and celastrol (B) for 24 hours. (C) Western blot of lysates from HEK cells conditionally over-expressing I477N myocilin that were treated with 7.5 μM of 17-AAG or vehicle (Veh) and harvested at indicated time points. (D) Dot blot of the cell culture media of HEK iWT cells that were treated with the indicated concentration of 17AAG. (E) Western blot of lysates from HEK iI477N cells and treated with indicated concentrations of a Grp94 selective inhibitor for 24 hours.
A well-established Human Embryonic Kidney (HEK) cell model that conditionally overexpresses wildtype (iWT) or I477N mutant myocilin (iI477N) was used in these studies. (Joe M K & Tomarev S I (2010) Expression of myocilin mutants sensitizes cells to oxidative stress-induced apoptosis: implication for glaucoma pathogenesis. Am J Pathol 176(6):2880-2890) In this inducible and stable cell line, wildtype or I477N myocilin harbors a Flag-tag to ease downstream detection. The inventors confirmed wildtype myocilin secretion and I477N intracellular retention using dot blot analysis of the cell culture media or Western blot of the lysates, respectively (FIG. 10A). The inventors further corroborated ER retention of I477N myocilin by immunofluorescence co-localization (FIG. 10B).
(§3) Small-molecule inhibition of Hsp90, including Grp94, is in clinical development for a number of diseases, and since Grp94 sequesters mutant myocilin from ERAD and Grp94 knockdown enables efficient clearance, the effects of Hsp90 inhibitors were tested. […] 17AAG facilitated reductions in I477N myocilin as soon as 3 hours after treatment (FIG. 16C). As expected, levels of wildtype myocilin were unaffected by 17-AAG, even at a very high dose (FIG. 16D). […] (Rousaki A, et al. (2011) Allosteric Drugs: The Interaction of Antitumor Compound MKT-077 with Human Hsp70 Chaperones. J Mol Biol 411(3):614-632)
Cells were plated and grown as previously described. […] Inducible cells were treated with […] of Tetracycline to induce myocilin expression, 24 hours prior to transfection. SiRNA transfections were performed with Silentfect reagent (BioRad). DNA Transfections were performed with Lipofectamine 2000 (Invitrogen) for 48 hours. The cells were harvested in Mammalian Protein Extraction Reagent (M-PER) buffer (Pierce) containing 1× protease inhibitor mixture (Calbiochem), 100 mM phenylmethylsulfonyl fluoride, and 1× phosphatase inhibitor II and III cocktails (Sigma).
Cells were treated with Grp94 inhibitor and Hsp70/Grp78 inhibitor for 24 hours. Proteasomal inhibition was achieved by treating cells with 0.6 uM and 0.8 uM of epoxomicin.
Western blot and coimmunoprecipitation analyses were performed as previously described. (Abisambra J F, et al. (2012) DnaJA1 Antagonizes Constitutive Hsp70-Mediated Stabilization of Tau. J Mol Biol) Protein samples were prepared using 2× Laemmli sample buffer (Bio-Rad). Samples were boiled for 5-10 min and then loaded onto a 10 well, 10% Tris-glycine gels (Invitrogen) or 18-well, 10% criterion gels (Bio-Rad). The gels were transferred onto PVDF membranes (Millipore) and then blocked for 1 hr at room temperature with 7% milk. […]

wildtype myocilin = experiment: Wildtype myocilin in HEK iWT cells, dot blot of media; format: cell-based, human; settings: even at a very high dose
Experimental: as §2
as §3, with “411(3):614-632) […]” for “411(3):614-632)”

[1] = system: Hsp90α/β client proteins Raf and Akt; experiment: Western blot of Hsp90α/β client proteins in HEK293 cell lysates; format: cell-based, human
Experimental: as §1
In contrast, loss of functional Hsp90α or Hsp90β results in cell death. […] To support these findings, western blot analyses of Hsp90α/β client proteins were performed from HEK293 cell lysates. Prototypical pan-Hsp90 inhibitors induce proteasome-mediated degradation of Hsp90α/β client substrates.
Cells were harvested in cold PBS and lysed in mammalian protein extraction reagent (MPER, Pierce) and protease inhibitors (Roche) on ice for 1 h. Lysates were clarified at 14,000 g for 10 min at 4° C. Protein concentrations were determined with the Pierce BCA assay kit per the manufacturer's instructions. Equal amounts of protein (10 μg) were electrophoresed under reducing conditions, transferred to a PVDF membrane, and immunoblotted with the corresponding specific antibodies. Membranes were incubated with an appropriate horseradish peroxidase-labeled secondary anti-body, developed with chemiluminescent substrate, and visualized.

Drosophila larvae (Gp93) = experiment: Drosophila larval growth on supplemented fly food; format: in vivo; settings: for effect on Drosophila larval growth: dietary, 250 μg/ml to 1 mg/ml in fly food, first instar w1118 larvae
Source text: (Maynard, J. C. et al. Gp93, the Drosophila GRP94 ortholog, is required for gut epithelial homeostasis and nutrient assimilation-coupled growth control. Dev. Biol. 339, 295-306, (2010)). In the Drosophila model, maternal Gp93 is sufficient to support embryogenesis in Gp93 homozygous null embryos. In the absence of zygotic expression of Gp93, however, larvae display a pronounced growth defect, commensurate with disrupted gut epithelial morphology, decreased gut nutrient uptake, and marked aberrations in copper cell structure and function. As a consequence, loss of Gp93 expression is larval lethal in Drosophila.
To determine the effects of compound 2 on Drosophila larval growth, first instar wild type (w1118) larvae were placed onto fly food supplemented with either no supplement (A), 0.1% (B), 0.3% (C), or 0.5% (D) DMSO (vehicle controls) or fly food supplemented with 250 μg/ml (E), 500 μg/ml (F), 750 μg/ml (G) or 1 mg/ml (H) compound 2. […] In parallel experiments, larval gut tissue was obtained from each of the feeding conditions and gut epithelial morphology evaluated by fluorescence microscopy. […] Pharmacokinetic studies of compound absorption and metabolism may provide addition insights into this partial phenotypic behavior.

C2C12 cells = experiment: C2C12 cell viability, XTT assay; settings: C2C12 cells treated as in the IGF-II assay
Experimental: The viability of cells treated as in A was measured at each of the indicated concentrations by the XTT assay.
C2C12 cells (ATCC, Rockville, Md.) were induced to differentiate either by complete withdrawal of serum or by shifting to medium supplemented with 2% house serum. […] Cell growth was measured with the XTT formazan colorimetric assay (Roche), cells were grown in 3% serum, to limit the background of the assay.

IGF-II secretion = IGF-II secretion by serum-starved C2C12 cells, ELISA; format: cell-based; settings: 10 μM, 48 h
Source text: IGF-II is a second well-defined Grp94-dependent client protein and active Grp94 is required for the secretion of IGF-II (Ostrovsky et al., 2009). […] (Wanderling, S. et al. GRP94 Is Essential for Mesoderm Induction and Muscle Development Because It Regulates Insulin-like Growth Factor Secretion. Mol. Biol. Cell 18, 3764-3775, (2007); Ostrovsky, O., Eletto, D., Makarewich, C., Barton, E. R. & Argon, Y. Glucose regulated protein 94 is required for muscle differentiation through its control of the autocrine production of insulin-like growth factors. BBA—Mol. Cell Res. 1803, 333-341, (2010); Ostrovsky, O., Ahmed, N. T. & Argon, Y. The Chaperone Activity of GRP94 Toward Insulin-like Growth Factor II Is Necessary for the Stress Response to Serum Deprivation. Mol. Biol. Cell 20, 1855-1864, (2009)). Accordingly, serum-starved C2C12 cells were treated with increasing concentrations of compound 2 and the secretion of IGF-II was measured by ELISA (FIG. 5A).
For IGF-II ELISA, plates were coated with anti-IGF-II (MAb 792, R&D Systems) and incubated with the test cell media. The bound IGF-II was detected with a biotinylated anti-IGF-II antibody (BAF792, R&D Systems) and developed with streptavidin-HRP (R&D Systems) according to the manufacturer's recommended procedure. […] Data were acquired in duplicate on a microtiter-plate reader (Dynatech Laboratories, Chantilly, Va.) at 450 nm.

[2] = system: full-length Grp94 versus yHsp82; settings: cited from earlier work

## C[C@@H]1C[C@H]2O[C@@H]2/C=C\C=C\C(=O)Cc2c(Cl)c(O)cc(O)c2C(=O)O1 [RDC, radicicol]
BiP expression; 10 μM
  up-regulation of BiP: did cause BiP up-regulation
HeLa cells
  IC50: 8 µM

## CCn1c(=Cc2cccc[n+]2C)sc(=C2Sc3ccccc3N2C)c1=O.[Cl-] [YM1]
I477N mutant myocilin
  effect on I477N mutant myocilin levels: did not reduce I477N

## C=CCNC1=C2C[C@@H](C)C[C@H](OC)[C@H](O)[C@@H](C)/C=C(\C)[C@H](OC(N)=O)[C@@H](OC)/C=C\C=C(/C)C(=O)NC(=CC1=O)C2=O [Compound 17-AAG]
BiP expression; 25 μM, data not shown
  up-regulation of BiP: did cause BiP up-regulation
I477N mutant myocilin; 7.5 μM
  time after treatment at which reductions in I477N myocilin are seen: 3 h
I477N mutant myocilin
  effect on I477N mutant myocilin levels: dose-dependent reductions
Wildtype myocilin
  levels of wildtype myocilin: unaffected

## COC(=O)c1c(O)cc(O)c(Cl)c1CCc1nccn1Cc1ccccc1 [Compound 2]
BiP expression
  concentration above which BiP expression is induced: above 200 μM
BiP expression; 0-75 μM
  up-regulation of BiP: did not lead to up-regulation of BiP
BiP expression; above 200 μM
  effect on Akt at BiP-inducing concentrations: destabilized Akt
[1]; HEK293 cells, 24 h
  concentration up to which no degradation of Raf or Akt (cytoplasmic client proteins) is induced: 100 µM
[1]; compound 2 at 100 μM, GDA positive control 500 nM, HEK293
  induction of HSP70: induction of HSP70
Drosophila larvae (Gp93)
  effect on Drosophila larval growth: dramatic growth phenotype
Drosophila larvae (Gp93); listed as compound 2
  effect on Drosophila larval growth: clearly stunted the growth of drosophila larvae in a dose-dependent manner
Drosophila larvae (Gp93); same feeding conditions, data not shown
  effects on copper cell structure (gut epithelial morphology): No grossly discernible effects
C2C12 cells
  effect on cell viability: little effect on cell viability
IGF-II secretion
  reduction of IGF-II secretion: Approximately 60%

## CC[C@H](C)[C@H](NC(=O)[C@H]([C@@H](C)CC)N(C)C(C)=O)C(=O)N[C@H](C(=O)N[C@@H](CC(C)C)C(=O)[C@@]1(C)CO1)[C@@H](C)O [epoxomicin]
I477N mutant myocilin; Grp94 knockdown
  effect on clearance of I477N myocilin: no effect on clearance
I477N mutant myocilin; control siRNA conditions
  effect on clearance of I477N myocilin: blocked the clearance of I477N myocilin

## radamide [RDA]
[2]
  binding affinity for full-length Grp94 relative to yHsp82: approximately 2 fold
